Columns and labels:
[1] = target: butyrylcholinesterase (BuChE) (Homo sapiens, UniProt P06276); assay: In vitro butyrylcholinesterase inhibitory activity; format: biochemical
[2] = target: acetylcholinesterase (AChE) (Homo sapiens, UniProt P22303); assay: biochemical
acetylcholinesterase (AChE), sequence (P22303 32-614, species assumed): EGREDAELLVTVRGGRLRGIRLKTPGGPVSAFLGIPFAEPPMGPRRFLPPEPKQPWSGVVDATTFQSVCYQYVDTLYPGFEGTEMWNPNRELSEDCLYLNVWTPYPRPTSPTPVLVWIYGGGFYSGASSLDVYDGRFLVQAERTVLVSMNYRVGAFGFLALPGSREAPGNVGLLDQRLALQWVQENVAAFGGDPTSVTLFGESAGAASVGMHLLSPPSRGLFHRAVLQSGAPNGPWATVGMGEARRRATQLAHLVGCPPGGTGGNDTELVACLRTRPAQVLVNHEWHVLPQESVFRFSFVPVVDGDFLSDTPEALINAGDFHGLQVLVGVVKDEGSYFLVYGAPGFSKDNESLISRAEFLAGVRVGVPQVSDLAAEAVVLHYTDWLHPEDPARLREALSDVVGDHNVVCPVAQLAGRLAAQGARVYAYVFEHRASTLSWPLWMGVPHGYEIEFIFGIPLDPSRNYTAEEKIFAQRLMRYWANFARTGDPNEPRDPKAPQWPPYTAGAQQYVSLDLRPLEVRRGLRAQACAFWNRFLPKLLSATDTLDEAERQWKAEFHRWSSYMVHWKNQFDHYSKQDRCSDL

butyrylcholinesterase (BuChE), sequence (P06276 29-602): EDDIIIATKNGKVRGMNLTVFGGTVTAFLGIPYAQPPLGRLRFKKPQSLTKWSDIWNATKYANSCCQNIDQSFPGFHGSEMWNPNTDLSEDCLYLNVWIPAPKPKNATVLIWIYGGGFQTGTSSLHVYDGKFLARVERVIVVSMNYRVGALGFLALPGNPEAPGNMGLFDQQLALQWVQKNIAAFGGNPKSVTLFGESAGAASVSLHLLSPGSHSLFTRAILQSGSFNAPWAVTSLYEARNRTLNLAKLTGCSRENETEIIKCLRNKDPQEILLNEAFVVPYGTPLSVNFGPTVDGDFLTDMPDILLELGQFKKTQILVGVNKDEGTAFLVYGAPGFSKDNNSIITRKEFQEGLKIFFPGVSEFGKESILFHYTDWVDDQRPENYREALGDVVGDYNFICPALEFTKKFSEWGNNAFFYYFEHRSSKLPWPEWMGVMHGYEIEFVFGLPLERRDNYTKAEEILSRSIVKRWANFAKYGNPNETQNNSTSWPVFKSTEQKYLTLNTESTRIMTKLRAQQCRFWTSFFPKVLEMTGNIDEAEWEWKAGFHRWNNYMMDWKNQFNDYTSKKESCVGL

With `CCN(CC)c1ccc(C=NN=C(C)c2ccc(OCc3ccc(Br)cc3)cc2)cc1` [Compound 2a, 4-(((1-(4-((4-bromobenzyl)oxy)phenyl)ethylidene)hydrazineylidene)methyl)-N,N-diethylaniline] the IC50 [1] was 77.9 ± 1.46 µM and the IC50 [2] was 44.36 ± 0.33 µM.

`COc1cccc(C=NN=C(C)c2ccc(OCc3ccc(Br)cc3)cc2)c1O` [Compound 2b, 2-(((1-(4-((4-Bromobenzyl)oxy)phenyl)ethylidene)hydrazono)methyl)-6-methoxyphenol] gave an IC50 [1] of 35.31 ± 0.01 µM and an IC50 [2] of 18.6 ± 0.21 µM.

Molecule `CC(=NN=Cc1ccc(Br)cc1F)c1ccc(OCc2ccc(Br)cc2)cc1` [Compound 2c, 1-(4-Bromo-2-fluorobenzylidene)-2-(1-(4-((4-bromobenzyl)oxy)phenyl)ethylidene)hydrazine] has an IC50 [1] of 175 ± 2.96 µM and an IC50 [2] of 150 ± 2.26 µM.

With `CC(=NN=Cc1ccc(Cl)cc1)c1ccc(OCc2ccc(Br)cc2)cc1` [Compound 2d, 1-(1-(4-((4-Bromobenzyl)oxy)phenyl)ethylidene)-2-(4-chlorobenzylidene)hydrazine] the IC50 [1] was 161.8 ± 0.07 µM and the IC50 [2] was 139 ± 2.33 µM.

Molecule `CC(=NN=Cc1ccc(C)o1)c1ccc(OCc2ccc(Br)cc2)cc1` [Compound 2e, 1-(1-(4-((4-Bromobenzyl)oxy)phenyl)ethylidene)-2-((5-methylfuran-2-yl)methylene) hydrazine] has an IC50 [1] of 136 ± 2.61 µM and an IC50 [2] of 98.21 ± 0.01 µM.

With `COc1ccc(C=NN=C(C)c2ccc(OCc3ccc(Br)cc3)cc2)cc1` [Compound 2f, 1-(1-(4-((4-Bromobenzyl)oxy)phenyl)ethylidene)-2-(4-methoxybenzylidene)hydrazine] the IC50 [1] was 76.3 ± 1.17 µM and the IC50 [2] was 48.37 ± 0.06 µM.

`CC(=NN=Cc1ccc(C)cc1)c1ccc(OCc2ccc(Br)cc2)cc1` [Compound 2g, 1-(1-(4-((4-Bromobenzyl)oxy)phenyl)ethylidene)-2-(4-methylbenzylidene)hydrazine] was tested, and the IC50 [1] was 98.7 ± 1.18 µM and the IC50 [2] was 62.28 ± 0.42 µM.

`CC(=NN=Cc1cccc2ccccc12)c1ccc(OCc2ccc(Br)cc2)cc1` [Compound 2h, 1-(1-(4-((4-Bromobenzyl)oxy)phenyl)ethylidene)-2-(naphthalen-1-ylmethylene)hydrazine] showed an IC50 [1] of 166.3 ± 1.2 µM and an IC50 [2] of 128.2 ± 0.98 µM.

Molecule `CC(=NN=Cc1ccc(C=O)cc1)c1ccc(OCc2ccc(Br)cc2)cc1` [Compound 2i, 4-(((1-(4-((4-Bromobenzyl)oxy)phenyl)ethylidene)hydrazono)methyl)benzaldehyde] has an IC50 [1] of 177 ± 3.53 µM and an IC50 [2] of 141.8 ± 0.77 µM.

— article PMC12188521 (RSC Advances, 2025)
